Reference: ChEMBL document CHEMBL4619814, “Identification and Development of 1,4-Diaryl-1,2,3-triazolo-Based Ureas as Novel FLT3 Inhibitors” (ACS Med Chem Lett, 2020)
Active and inactive are the calls of the source. The rule behind the calls is not given here.

Key:
[1] = test system: MV4-11; assay: Induction of cell cycle arrest in human MV4-11 cells assessed as S phase at 20 nM incubated for 48 hrs by propidium iodide staining based flow cytometry analysis (reference value: 20.14 %); format: functional
[2] = test system: U-937; assay: cells; conditions: Homo sapiens, U-937, 72 h
Description: Cytotoxicity against human U937 cells assessed as reduction in cell viability incubated for 72 hrs by CCK8 assay

[3] = test system: MV4-11; assay: Antitumor activity at human MV4-11 cells xenografted in CB17-SCID mouse assessed as tumor growth inhibition at 40 mg/kg, po administered for 10 days and measured on day 10 relative to control; format: functional; conditions: MV4-11, po, 240 h, read-out: TGI
[4] = test system: MV4-11; assay: Induction of apoptosis in human MV4-11 cells assessed as viable cells at 4 nM incubated for 48 hrs by annexin V and 7-AAD staining based flow cytometry analysis (reference value: 90.47 %); format: functional; conditions: MV4-11, 48 h, read-out: Activity
[5] = in vitro; conditions: mouse, BaF3 cells
Description: Cytotoxicity against human BAF3 cells assessed as growth inhibition incubated for 72 hrs by CCK8 assay

[6] = test system: MV4-11; assay: Induction of apoptosis in human MV4-11 cells assessed as late apoptotic cells at 4 nM incubated for 48 hrs by annexin V and 7-AAD staining based flow cytometry analysis (reference value: 2.25 %); format: functional
[7] = test system: MV4-11; assay: Induction of cell cycle arrest in human MV4-11 cells assessed as S phase at 4 nM incubated for 48 hrs by propidium iodide staining based flow cytometry analysis (reference value: 20.14 %); format: functional
[8] = biological target: T1, Receptor-type tyrosine-protein kinase FLT3 (Homo sapiens, UniProt P36888)
T1 sequence (P36888 whole entry): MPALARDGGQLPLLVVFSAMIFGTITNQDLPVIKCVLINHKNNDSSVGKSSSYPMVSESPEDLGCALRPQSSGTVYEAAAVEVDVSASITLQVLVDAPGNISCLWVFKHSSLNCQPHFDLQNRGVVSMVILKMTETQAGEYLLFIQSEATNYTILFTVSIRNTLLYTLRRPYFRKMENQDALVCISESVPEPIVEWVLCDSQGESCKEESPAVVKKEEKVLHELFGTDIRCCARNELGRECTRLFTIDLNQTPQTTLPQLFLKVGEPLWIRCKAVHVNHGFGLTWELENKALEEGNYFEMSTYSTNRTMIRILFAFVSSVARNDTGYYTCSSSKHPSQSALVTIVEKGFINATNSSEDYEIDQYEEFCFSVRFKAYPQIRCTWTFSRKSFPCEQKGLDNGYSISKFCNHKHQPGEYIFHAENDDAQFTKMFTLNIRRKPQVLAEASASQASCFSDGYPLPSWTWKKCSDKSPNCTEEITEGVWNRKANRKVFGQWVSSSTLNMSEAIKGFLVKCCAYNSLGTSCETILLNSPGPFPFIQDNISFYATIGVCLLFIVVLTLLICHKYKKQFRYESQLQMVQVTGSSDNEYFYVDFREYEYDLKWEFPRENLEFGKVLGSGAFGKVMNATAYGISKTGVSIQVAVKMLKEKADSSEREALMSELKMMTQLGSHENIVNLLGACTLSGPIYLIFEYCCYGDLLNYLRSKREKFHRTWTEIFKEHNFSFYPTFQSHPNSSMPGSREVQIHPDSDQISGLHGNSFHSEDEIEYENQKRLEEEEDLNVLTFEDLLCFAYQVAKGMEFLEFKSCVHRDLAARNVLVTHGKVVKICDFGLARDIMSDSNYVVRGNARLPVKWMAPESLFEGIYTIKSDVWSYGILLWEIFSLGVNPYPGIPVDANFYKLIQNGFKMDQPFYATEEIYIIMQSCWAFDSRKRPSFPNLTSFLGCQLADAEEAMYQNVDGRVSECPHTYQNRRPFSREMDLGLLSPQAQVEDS
Description: Binding affinity to recombinant human FLT3 (592 to 969 residues) expressed in bacterial expression system by Kinomescan method

[9] = test system: MV4-11; assay: Induction of cell cycle arrest in human MV4-11 cells assessed as G0/G1 phase at 4 nM incubated for 48 hrs by propidium iodide staining based flow cytometry analysis (reference value: 54.82 %); format: functional
[10] = biological target: Receptor-type tyrosine-protein kinase FLT3 (Homo sapiens, UniProt P36888, D835V/ITD)
Description: Binding affinity to recombinant human FLT3 ITD/D835V double mutant expressed in bacterial expression system by Kinomescan method

[11] = biological target: Proto-oncogene tyrosine-protein kinase receptor Ret (Homo sapiens, UniProt P07949)
Chain of Proto-oncogene tyrosine-protein kinase receptor Ret (P07949 whole entry): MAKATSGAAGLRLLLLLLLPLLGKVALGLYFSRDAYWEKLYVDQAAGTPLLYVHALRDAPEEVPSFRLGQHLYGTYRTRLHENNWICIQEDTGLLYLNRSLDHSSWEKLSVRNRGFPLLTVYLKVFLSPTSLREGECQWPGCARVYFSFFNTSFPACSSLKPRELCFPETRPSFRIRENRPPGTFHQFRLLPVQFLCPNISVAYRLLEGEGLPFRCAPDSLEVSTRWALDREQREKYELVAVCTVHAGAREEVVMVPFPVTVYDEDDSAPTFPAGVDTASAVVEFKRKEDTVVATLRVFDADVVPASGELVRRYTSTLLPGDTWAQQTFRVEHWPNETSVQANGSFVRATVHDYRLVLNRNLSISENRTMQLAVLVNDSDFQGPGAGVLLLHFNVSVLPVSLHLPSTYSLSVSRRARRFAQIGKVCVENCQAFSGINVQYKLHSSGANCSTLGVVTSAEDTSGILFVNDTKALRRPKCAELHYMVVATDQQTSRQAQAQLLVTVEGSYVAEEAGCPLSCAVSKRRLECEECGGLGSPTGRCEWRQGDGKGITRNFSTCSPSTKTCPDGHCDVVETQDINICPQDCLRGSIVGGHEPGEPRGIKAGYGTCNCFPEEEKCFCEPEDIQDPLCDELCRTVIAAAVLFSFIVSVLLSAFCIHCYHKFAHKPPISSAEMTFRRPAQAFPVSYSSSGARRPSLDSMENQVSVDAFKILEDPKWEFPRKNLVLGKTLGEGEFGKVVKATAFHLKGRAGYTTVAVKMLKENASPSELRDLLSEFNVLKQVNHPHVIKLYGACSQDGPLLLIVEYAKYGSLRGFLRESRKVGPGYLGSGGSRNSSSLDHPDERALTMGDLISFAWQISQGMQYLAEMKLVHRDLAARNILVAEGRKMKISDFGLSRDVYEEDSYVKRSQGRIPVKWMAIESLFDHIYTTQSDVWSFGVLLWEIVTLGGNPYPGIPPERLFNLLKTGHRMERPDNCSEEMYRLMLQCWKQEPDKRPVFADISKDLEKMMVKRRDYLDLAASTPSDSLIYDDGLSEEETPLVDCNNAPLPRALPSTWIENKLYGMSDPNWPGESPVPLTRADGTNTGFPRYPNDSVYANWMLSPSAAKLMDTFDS
Description: Binding affinity to recombinant human RET (713 to 1014 residues) expressed in bacterial expression system by Kinomescan method

[12] = biological target: Receptor-type tyrosine-protein kinase FLT3 (Homo sapiens, UniProt P36888, ITD); format: cell-based, Sf9
[13] = test system: MV4-11; assay: Induction of cell cycle arrest in human MV4-11 cells assessed as G2/M phase at 100 nM incubated for 48 hrs by propidium iodide staining based flow cytometry analysis (reference value: 24.88 %); format: functional
[14] = test system: KG-1; assay: cells; conditions: Homo sapiens, KG-1, 72 h
Description: Cytotoxicity against human KG1 cells assessed as reduction in cell viability incubated for 72 hrs by CCK8 assay

[15] = Oral bioavailability in Sprague-Dawley rat at 25 mg/kg; format: ADME, organism-based; conditions: in vivo
[16] = test system: MV4-11; assay: Induction of cell cycle arrest in human MV4-11 cells assessed as reduction in CDK4 expression at 0.16 to 100 nM by Western blot analysis; format: functional, cell-based
[17] = test system: MV4-11; assay: Induction of apoptosis in human MV4-11 cells assessed as necrotic cells at 100 nM incubated for 48 hrs by annexin V and 7-AAD staining based flow cytometry analysis (reference value: 0.91 %); format: functional
[18] = Cmax in Sprague-Dawley rat at 5 mg/kg, iv; format: ADME, organism-based; design: dose 5 mg/kg, route intravenous; conditions: in vivo
[19] = Half life in Sprague-Dawley rat at 5 mg/kg, iv; format: ADME, organism-based; conditions: in vivo

CC(C)(C)c1cc(NC(=O)Nc2ccc(-c3cn(-c4ccc(OCCN5CCOCC5)cc4Cl)nn3)cc2)no1
Activity [1]: 5.68%
GI50 [2]: > 3000 nM
inhibition in vivo at 40 mg/kg [3]: 80.1%
viability at 0.004 µM [4]: 88.7%
GI50 at 72 h [5]: > 3000 nM
Activity [6]: 2.64%
Activity [7]: 15.39%
Kd [8]: 3.5 nM
Activity [9]: 66.16%
Kd [10]: 10000 nM
Kd [11]: 24 nM
IC50 [12]: 32.8 nM
Activity [13]: 5.11%
GI50 [14]: > 3000 nM
bioavailability [15]: 35.8%
Activity [16]: Active
Activity [17]: 3.25%
Cmax [18]: 6850 ng/mL
half-life [19]: 5.11 h
